Measured values from publication PMC3871589, “Evaluation of STAT3 Signaling in ALDH+ and ALDH+/CD44+/CD24− Subpopulations of Breast Cancer Cells” (PLoS ONE, 2013).

Legend:
[1] = test system: ALDH+/CD44+/CD24− SUM-159 breast cancer stem-like cells; assay: Mouse xenograft of SUM159 ALDH+/CD44+/CD24− cells; format: in vivo, NOD/SCID mice; details: 5 mg/kg IP daily; P<0.05
Procedure: All animal studies were conducted in accordance with the principles and standard procedures approved by IACUC at the Research Institute at Nationwide Children’s Hospital and the University Committee on the Use and Care of Animals at the University of Michigan. ALDH^+ subpopulations of MDA-MB-231 and ALDH^+/CD44^+/CD24^− subpopulations of SUM-159 breast cancer cells (1×10^5) respectively were injected subcutaneous (s.c.) into the flank area of female Non-obese diabetic (NOD)/Severe combined immunodeficiency (SCID) mice which were purchased from Jackson Laboratory.

JAK2 = JAK2 (Homo sapiens, UniProt O60674); assay: Kinase profiler assay, JAK2; format: biochemical; details: 10 concentrations, 100 µM highest; Table S3
Procedure: (§1) The effects of LLL12 on twenty six purified human protein kinases were performed at the Millipore UK Limited (Dundee, UK) and Reaction Biology Corp. (Malvern, PA) using the Kinase profiler assay. Assays contained a peptide substrate, purified recombinant human protein kinases to be tested, and gamma-labeled ATP, magnesiumion. Radioactive phosphorylated product was measured and quantitated via a scintillation counter.

[2] = test system: tumor tissues from breast cancer stem-like cells; assay: Immunohistochemistry of tumor tissues (Ki-67, cleaved caspase-3); format: in vivo, NOD/SCID mice; details: 5 mg/kg IP daily
Procedure: Human breast cancer tissue microarray slides, comprising 95 breast cancer cases, were obtained from the Biochain Institute, Inc.. These slides were baked at 60°C for 1 hour. After deparaffinization, the slides were boiled in a pressure cooker filled with 10 mM Sodium Citrate (PH6.0), and then subjected to immunohistochemistry or immunofluorescence staining. P-STAT3 (Y705) (1∶25; Signaling Technology, Beverly, MA), ALDH1 (1∶100; BD Pharmingen, San Diego, CA), Ki-67 (1∶100; Santa Cruz Biotechnology, Santa Cruz, CA) or cleaved Caspase-3 (1∶100; Signaling Technology, Beverly, MA) antibody were used. For immunofluorescence, the slides were incubated with both primary antibodies and double-stained with Alexa Fluor® 488 conjugated anti-rabbit IgG and Alexa Fluor® 594 conjugated anti-mouse IgG (Cell Signaling Technology, Beverly, MA) overnight at 4°C. The nuclei were subsequently stained with DAPI. For immunohistochemistry, endogenous peroxidase activity was quenched by incubation in 3% hydrogen peroxide for 10 min. After blocking, the slides were incubated with primary antibody overnight at 4°C. The Histostain-Plus Kits (Invitrogen, Carlsbad, CA) were used per the manufacturer’s protocol. […] The staining intensity was scored under microscope as described elsewhere. Significance of correlation between P-STAT3 and ALDH1 was determined using two-sided Pearson Chi-square (χ^2) test.

Yes = Yes (Homo sapiens, UniProt P07947); assay: Kinase profiler assay, Yes; format: biochemical; details: 10 concentrations, 100 µM highest; Table S3
Procedure: as §1

Bmx = Bmx (Homo sapiens, UniProt P51813); assay: Kinase profiler assay, Bmx; format: biochemical; details: 10 concentrations, 100 µM highest; Table S3
Procedure: as §1

[3] = test system: ALDH+ subpopulation of MDA-MB-231, SUM159, and SK-BR-3 cells; assay: Cleaved caspase-3 in ALDH+ cells; format: cell-based, human; details: LLL12 5 µmol/L 24 hours, ShRNA 48 hours then puromycin
Procedure: The ALDEFLUOR kit (StemCell Technologies) was used to isolate the population with high ALDH enzymatic activity as previously described. Briefly, cells were trypsinized to single cells using 0.05% trypsin and subsequently suspended in ALDEFLUOR assay buffer containing ALDH substrate (BAAA, 1 µmol/l per 1×10^6 cells) and then incubated for 40 minutes at 37°C. For each sample, an aliquot of cells was stained under identical conditions with 15 mmol/L diethylaminobenzaldehyde (DEAB), a specific ALDH inhibitor, as an ALDH^− control. Anti-human PE-CD24 and PE-Cy5-CD44 antibody (BioLegend) were used for CD44/CD24 identification and to separate ALDH^+/CD44^+/CD24^− and ALDH^−/CD44^+/CD24^+ cells when combined with ALDH staining. Analysis was performed using a FACStarPLUS (Becton Dickinion) flow cytometer. To assess the effect of STAT3 inhibitors on the subpopulation of ALDH^+ cells, un-separated breast cancer cells were treated with 5 µmol/L of LLL12 or 10 µmol/L Stattic for 24 hours prior to performing the ALDEFLUOR assay.
After sorting by flow cytometry, ALDH^+ and ALDH^+/CD44^+/CD24^− stem-like cells were cultured in serum-free stem cell medium in ultra-low attachment six-well plates (Corning) to maintain cancer stem cell characteristics. […]

AKT1 = AKT1 (Homo sapiens, UniProt P31749); assay: Kinase profiler assay, AKT1; format: biochemical; details: bound stated jointly for the other protein kinases; Table S3
Procedure: as §1

Fes = Fes (Homo sapiens, UniProt P07332); assay: Kinase profiler assay, Fes; format: biochemical; details: 10 concentrations, 100 µM highest; Table S3
Procedure: as §1

PI3K = assay: Kinase profiler assay, PI3K; format: biochemical, human; details: bound stated jointly for the other protein kinases; Table S3
Procedure: as §1

Met = Met (Homo sapiens, UniProt P08581); assay: Kinase profiler assay, Met; format: biochemical; details: bound stated jointly for the other protein kinases; Table S3
Procedure: as §1

STAT1 = details: cited from earlier work
ALDH− cells = assay: MTT cell viability assay, ALDH− subpopulation; format: cell-based, human; details: Figure S4
Procedure: The breast cancer cells were seeded in 96-well plates (3,000 cells/well) in triplicates in a serum-free mammary epithelial basal medium. The following day, cancer cells were treated with 1 to 10 µmol/L of LLL12 or Stattic for 72 hours, STAT3 ShRNA or control GFP shRNA lentivirus (CTL ShRNA) for 48 hours. MTT (Thiazolyl Blue Tetrazolium Bromide, Sigma-Aldrich) assay was used to determine the cell viability.

mTOR = mTOR (Homo sapiens, UniProt P42345); assay: Kinase profiler assay, mTOR; format: biochemical; details: bound stated jointly for the other protein kinases; Table S3
Procedure: as §1

[4] = 5 mg/kg IP daily; data not shown

Chain of Met (P08581 25-1390): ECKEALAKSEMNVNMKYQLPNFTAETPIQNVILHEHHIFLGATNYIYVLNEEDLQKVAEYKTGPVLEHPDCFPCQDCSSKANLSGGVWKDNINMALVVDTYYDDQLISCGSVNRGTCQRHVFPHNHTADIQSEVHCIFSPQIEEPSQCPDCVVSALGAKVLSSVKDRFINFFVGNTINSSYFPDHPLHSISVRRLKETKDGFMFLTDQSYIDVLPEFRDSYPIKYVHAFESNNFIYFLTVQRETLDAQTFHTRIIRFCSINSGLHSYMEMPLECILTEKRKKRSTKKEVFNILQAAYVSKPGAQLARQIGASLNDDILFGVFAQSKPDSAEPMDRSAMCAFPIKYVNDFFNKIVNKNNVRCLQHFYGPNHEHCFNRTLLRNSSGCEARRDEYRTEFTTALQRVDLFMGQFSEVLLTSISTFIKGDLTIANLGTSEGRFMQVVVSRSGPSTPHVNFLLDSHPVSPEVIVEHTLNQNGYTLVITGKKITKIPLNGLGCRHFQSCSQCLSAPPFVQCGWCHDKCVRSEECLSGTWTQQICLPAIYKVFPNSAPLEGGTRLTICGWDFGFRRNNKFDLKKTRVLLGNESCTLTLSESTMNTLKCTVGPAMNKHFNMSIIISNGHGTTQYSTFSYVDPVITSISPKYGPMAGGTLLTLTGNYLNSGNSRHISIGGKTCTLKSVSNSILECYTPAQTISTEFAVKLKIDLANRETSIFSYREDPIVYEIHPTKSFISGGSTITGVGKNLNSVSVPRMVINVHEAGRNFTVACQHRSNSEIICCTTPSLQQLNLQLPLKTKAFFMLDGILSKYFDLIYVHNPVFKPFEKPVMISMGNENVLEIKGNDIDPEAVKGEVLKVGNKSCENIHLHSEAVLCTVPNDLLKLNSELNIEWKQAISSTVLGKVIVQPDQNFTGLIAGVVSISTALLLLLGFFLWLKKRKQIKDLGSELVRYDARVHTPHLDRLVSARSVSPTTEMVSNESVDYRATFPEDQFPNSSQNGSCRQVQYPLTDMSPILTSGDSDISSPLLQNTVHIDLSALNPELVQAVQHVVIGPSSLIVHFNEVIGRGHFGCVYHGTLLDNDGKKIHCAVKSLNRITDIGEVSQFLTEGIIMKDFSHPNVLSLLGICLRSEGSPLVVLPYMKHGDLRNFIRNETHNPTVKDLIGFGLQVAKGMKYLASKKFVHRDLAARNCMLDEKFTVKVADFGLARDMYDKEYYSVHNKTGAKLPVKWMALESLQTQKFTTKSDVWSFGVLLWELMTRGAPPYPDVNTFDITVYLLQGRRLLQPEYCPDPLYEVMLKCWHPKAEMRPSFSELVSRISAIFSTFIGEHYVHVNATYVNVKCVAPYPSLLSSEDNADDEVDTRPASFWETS
Chain of AKT1 (P31749 whole entry): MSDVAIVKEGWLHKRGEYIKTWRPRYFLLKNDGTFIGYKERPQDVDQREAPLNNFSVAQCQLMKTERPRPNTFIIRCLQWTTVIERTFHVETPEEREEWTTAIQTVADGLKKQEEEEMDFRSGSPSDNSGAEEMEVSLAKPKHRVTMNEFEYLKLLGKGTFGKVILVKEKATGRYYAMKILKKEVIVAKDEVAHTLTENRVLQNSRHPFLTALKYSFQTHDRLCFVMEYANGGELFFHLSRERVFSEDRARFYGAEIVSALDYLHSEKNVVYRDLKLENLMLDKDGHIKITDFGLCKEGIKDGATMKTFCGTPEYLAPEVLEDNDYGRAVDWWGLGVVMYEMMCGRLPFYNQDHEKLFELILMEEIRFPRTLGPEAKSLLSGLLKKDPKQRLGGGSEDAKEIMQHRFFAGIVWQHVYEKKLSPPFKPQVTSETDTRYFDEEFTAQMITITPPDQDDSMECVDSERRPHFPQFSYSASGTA
Chain of JAK2 (O60674 whole entry): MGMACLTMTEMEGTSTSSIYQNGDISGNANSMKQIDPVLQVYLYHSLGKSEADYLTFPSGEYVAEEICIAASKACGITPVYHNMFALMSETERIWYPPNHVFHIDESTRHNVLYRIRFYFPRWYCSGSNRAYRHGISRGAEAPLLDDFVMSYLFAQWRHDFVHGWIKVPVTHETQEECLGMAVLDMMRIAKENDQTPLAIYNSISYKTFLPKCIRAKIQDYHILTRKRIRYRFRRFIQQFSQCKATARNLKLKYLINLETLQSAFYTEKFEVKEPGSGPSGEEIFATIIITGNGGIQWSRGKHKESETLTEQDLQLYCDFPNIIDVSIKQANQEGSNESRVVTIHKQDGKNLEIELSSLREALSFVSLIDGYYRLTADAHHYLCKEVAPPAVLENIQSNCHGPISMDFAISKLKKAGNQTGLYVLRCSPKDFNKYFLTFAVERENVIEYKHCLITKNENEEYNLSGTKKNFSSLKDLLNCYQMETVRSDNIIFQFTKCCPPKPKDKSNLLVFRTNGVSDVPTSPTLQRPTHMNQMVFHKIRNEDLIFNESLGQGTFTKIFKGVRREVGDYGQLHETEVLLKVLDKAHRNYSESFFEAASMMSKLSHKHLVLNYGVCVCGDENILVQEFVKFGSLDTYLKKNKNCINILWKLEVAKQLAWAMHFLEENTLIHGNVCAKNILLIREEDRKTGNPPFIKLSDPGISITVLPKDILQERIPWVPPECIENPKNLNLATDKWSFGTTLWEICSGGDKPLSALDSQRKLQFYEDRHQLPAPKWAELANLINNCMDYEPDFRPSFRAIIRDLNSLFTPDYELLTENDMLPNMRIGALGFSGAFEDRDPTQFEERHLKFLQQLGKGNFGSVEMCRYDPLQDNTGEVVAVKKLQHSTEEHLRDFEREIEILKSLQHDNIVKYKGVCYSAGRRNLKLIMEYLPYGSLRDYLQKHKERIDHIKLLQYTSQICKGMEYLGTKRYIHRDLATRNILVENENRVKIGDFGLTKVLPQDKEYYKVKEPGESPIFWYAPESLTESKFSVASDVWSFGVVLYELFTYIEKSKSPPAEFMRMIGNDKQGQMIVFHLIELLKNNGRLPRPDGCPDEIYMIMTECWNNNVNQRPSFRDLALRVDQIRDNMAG
Chain of Yes (P07947 whole entry): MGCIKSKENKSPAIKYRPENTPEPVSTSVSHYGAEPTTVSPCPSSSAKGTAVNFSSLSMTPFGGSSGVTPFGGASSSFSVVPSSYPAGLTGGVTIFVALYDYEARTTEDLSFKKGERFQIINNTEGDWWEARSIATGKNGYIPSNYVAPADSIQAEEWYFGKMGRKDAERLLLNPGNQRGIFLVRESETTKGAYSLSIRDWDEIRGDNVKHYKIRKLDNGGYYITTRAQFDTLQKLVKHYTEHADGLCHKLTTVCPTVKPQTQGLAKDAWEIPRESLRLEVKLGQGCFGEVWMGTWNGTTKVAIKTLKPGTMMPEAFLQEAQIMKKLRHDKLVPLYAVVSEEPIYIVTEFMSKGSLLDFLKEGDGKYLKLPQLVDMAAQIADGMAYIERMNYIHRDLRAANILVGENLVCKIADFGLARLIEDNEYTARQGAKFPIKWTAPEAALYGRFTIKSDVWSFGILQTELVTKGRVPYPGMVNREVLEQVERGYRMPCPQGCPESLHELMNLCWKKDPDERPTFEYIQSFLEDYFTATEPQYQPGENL
Chain of Bmx (P51813 whole entry): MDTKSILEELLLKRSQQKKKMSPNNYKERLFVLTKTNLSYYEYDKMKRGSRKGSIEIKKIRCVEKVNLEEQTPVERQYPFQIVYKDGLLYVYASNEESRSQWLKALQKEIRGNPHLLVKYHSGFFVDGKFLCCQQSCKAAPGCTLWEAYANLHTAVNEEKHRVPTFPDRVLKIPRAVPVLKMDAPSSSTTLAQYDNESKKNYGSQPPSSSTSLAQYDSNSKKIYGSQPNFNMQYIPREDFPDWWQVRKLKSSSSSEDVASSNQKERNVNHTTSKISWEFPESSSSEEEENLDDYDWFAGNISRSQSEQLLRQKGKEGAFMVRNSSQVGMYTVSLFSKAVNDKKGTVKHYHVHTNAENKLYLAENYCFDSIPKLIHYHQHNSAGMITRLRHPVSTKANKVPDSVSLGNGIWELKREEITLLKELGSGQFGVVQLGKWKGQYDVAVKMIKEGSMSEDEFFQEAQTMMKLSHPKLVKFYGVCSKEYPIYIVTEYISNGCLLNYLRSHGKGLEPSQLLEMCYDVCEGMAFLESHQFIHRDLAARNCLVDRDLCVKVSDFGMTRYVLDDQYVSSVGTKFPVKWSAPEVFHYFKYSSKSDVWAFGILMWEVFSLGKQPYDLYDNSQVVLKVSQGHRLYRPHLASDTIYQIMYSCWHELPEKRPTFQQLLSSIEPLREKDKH
Chain of Fes (P07332 whole entry): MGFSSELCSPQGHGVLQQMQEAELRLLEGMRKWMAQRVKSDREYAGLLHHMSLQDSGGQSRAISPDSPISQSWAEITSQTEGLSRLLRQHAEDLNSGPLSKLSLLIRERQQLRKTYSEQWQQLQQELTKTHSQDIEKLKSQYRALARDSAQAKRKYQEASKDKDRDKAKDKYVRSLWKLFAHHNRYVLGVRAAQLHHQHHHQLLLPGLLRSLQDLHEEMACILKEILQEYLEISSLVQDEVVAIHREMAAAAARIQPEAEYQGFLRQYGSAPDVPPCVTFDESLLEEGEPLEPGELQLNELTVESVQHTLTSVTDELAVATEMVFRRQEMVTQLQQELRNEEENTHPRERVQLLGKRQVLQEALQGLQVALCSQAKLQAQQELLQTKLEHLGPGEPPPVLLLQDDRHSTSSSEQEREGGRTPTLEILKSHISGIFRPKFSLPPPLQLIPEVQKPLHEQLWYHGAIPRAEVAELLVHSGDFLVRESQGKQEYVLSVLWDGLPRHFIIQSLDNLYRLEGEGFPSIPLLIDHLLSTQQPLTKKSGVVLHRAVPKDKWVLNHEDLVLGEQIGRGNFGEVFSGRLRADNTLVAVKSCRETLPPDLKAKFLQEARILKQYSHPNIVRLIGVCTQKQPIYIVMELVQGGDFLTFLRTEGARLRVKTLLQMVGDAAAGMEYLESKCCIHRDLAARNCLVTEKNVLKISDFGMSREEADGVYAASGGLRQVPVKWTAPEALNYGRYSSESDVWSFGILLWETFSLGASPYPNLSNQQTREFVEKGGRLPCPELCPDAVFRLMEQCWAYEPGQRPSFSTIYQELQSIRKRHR

NS(=O)(=O)c1cccc2c1C(=O)c1cccc(O)c1C2=O [LLL12]
tumor volume [1]: significantly suppressed
IC50 (JAK2): > 100 µM
number of Ki-67 positive cells [2]: decreased
number of cleaved caspase-3 positive cells [2]: increased
IC50 (Yes): > 100 µM
IC50 (Bmx): > 100 µM
cleaved caspase-3 in ALDH+ cells [3]: induced cleaved caspase-3
IC50 (AKT1): ≥ 77.9 µM
IC50 (Fes): > 100 µM
IC50 (PI3K): ≥ 77.9 µM
IC50 (Met): ≥ 77.9 µM
STAT1 DNA binding activity (STAT1): not
effects against the ALDH− cells (cell viability) (ALDH− cells): some inhibitory effects
IC50 (mTOR): ≥ 77.9 µM
body weight compared to vehicle control [4]: did not differ
